Each block holds one substance with its values, some of them ahead of it. Ends that are not written are not given here.
What was measured:
[1] = Plasma and brain levels in male CD-1 mice after a single IP dose; assay type: in vivo, CD-1 mouse; settings: for Tissue Homogenate Conc / Plasma Conc: male CD-1 mice, IP 10 mg/kg single
TLR2 = settings: read-out: KD for binding to TLR2; ref 1 (Li et al); cited from earlier work
[2] = male, CD-1, mouse, brain homogenate, ip, 10 mg/kg
[3] = male, CD-1, mouse, brain, ip, 10 mg/kg
[4] = male, CD-1, mouse, plasma, ip, 10 mg/kg

Tissue Homogenate Conc ([1]; brain homogenate, 0.5 h, animal 2): 2.17 ng/mL
Tissue Homogenate Conc ([1]; brain homogenate, 0.5 h, animal 3): 3.18 ng/mL
Tissue Homogenate Conc ([1]; brain homogenate, 1 h, animal 1): 1.69 ng/mL
Tissue Homogenate Conc ([1]; brain homogenate, 1 h, animal 2): 1.78 ng/mL
Tissue Homogenate Conc ([1]; brain homogenate, 1 h, animal 3): 2.20 ng/mL
Tissue Homogenate Conc ([1]; brain homogenate, 2 h, animal 1): 1.64 ng/mL
Tissue Homogenate Conc ([1]; brain homogenate, 2 h, animal 2): 1.28 ng/mL
Tissue Homogenate Conc ([1]; brain homogenate, 2 h, animal 3): 1.22 ng/mL
Tissue Homogenate Conc ([1]; brain homogenate, 4 h, animal 1): 1.16 ng/mL
Tissue Homogenate Conc ([1]; brain homogenate, 4 h, animal 2): 1.03 ng/mL
Tissue Homogenate Conc ([1]; brain homogenate, 4 h, animal 3): 1.08 ng/mL
level at 0.5 h [1, 2]: 2.56 ng/mL
level at 1 h [1, 2]: 1.89 ng/mL
level at 2 h [1, 2]: 1.38 ng/mL
level at 4 h [1, 2]: 1.09 ng/mL
tissue level at time at 0.5 h [1, 3]: 10.3 ng/g
tissue level at time at 1 h [1, 3]: 7.56 ng/g
tissue level at time at 2 h [1, 3]: 5.52 ng/g
tissue level at time at 4 h [1, 3]: 4.36 ng/g
level at 0.5 h [1, 4]: 132 ng/mL
level at 1 h [1, 4]: 90.9 ng/mL
level at 2 h [1, 4]: 59.5 ng/mL
level at 4 h [1, 4]: 49 ng/mL
level at 8 h [1, 4]: 27.6 ng/mL
Plasma Conc ([1]; plasma, 0.5 h, animal 1, LC-MS/MS): 144 ng/mL
Plasma Conc ([1]; plasma, 0.5 h, animal 2): 136 ng/mL
Plasma Conc ([1]; plasma, 0.5 h, animal 3): 115 ng/mL
Plasma Conc ([1]; plasma, 1 h, animal 1): 80.1 ng/mL
Plasma Conc ([1]; plasma, 1 h, animal 2): 107 ng/mL
Plasma Conc ([1]; plasma, 1 h, animal 3): 85.7 ng/mL
Plasma Conc ([1]; plasma, 2 h, animal 1): 56.5 ng/mL
Plasma Conc ([1]; plasma, 2 h, animal 2): 67.2 ng/mL
Plasma Conc ([1]; plasma, 2 h, animal 3): 54.8 ng/mL
Plasma Conc ([1]; plasma, 4 h, animal 1): 53.4 ng/mL
Plasma Conc ([1]; plasma, 4 h, animal 2): 42.2 ng/mL
Plasma Conc ([1]; plasma, 4 h, animal 3): 51.3 ng/mL
Plasma Conc ([1]; plasma, 8 h, animal 1): 28.7 ng/mL
Plasma Conc ([1]; plasma, 8 h, animal 2): 30.6 ng/mL
Plasma Conc ([1]; plasma, 8 h, animal 3): 23.6 ng/mL
Substance: RKDVY [TP5, thymopentin, reference compound] [listing 1 of 2 here]

Substance: RKDVY [TP5, thymopentin, reference compound] [listing 2 of 2 here]
Kd (TLR2): 1570 nM

Source: article doi:10.1101/2023.04.18.537371v1 (bioRxiv, 2023)
